Laboratory results from PubChem BioAssay AID1963597 (National Center for Advancing Translational Sciences (NCATS), 2024).
Non-standard residues stand in square brackets, D forms with d. Residues, ends and D or L forms follow the SMILES beside them. *: point of attachment. Sta = CC(C)C[C@H](N)[C@@H](O)CC(=O)O; Isovaleryl = CC(C)CC(=O)*

system: human liver microsomes, metabolic stability half-life; experiment: NCATS Human Liver Microsomal (HLM) Stability Profiling; settings: higher = more stable; screened at 1 µM (by protocol)
Procedure, shortened: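 Substrate depletion (in vitro t1/2): 1 µM compound with 0.5 mg/mL microsomes and NADPH regenerating system, phosphate buffer pH 7.4, 37 °C. Sampled at 0, 5, 10, 15, 30, 60 min into cold acetonitrile with albendazole internal standard for MS quantification.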

| Structure (SMILES) | half-life [min] |
| --- | --- |
| C[C@]12CC[C@@H]3c4ccc(O)cc4CC[C@H]3[C@@H]1C[C@@H](O)[C@@H]2O | > 120 |
| CCN1CCN(C(=O)C2Cn3cccc3C(=O)N2CC(C)C)CC1 (centres undefined) | > 120 |
| Cc1cnc(NC(=O)c2cc(S(=O)(=O)N(C)C)ccc2N2CCCC2)s1 | 24.3 |
| CCCC(C)(COC(N)=O)COC(=O)NC(C)C (centres undefined) | > 120 |
| O=[N+]([O-])c1cccc(S(=O)(=O)NCCNS(=O)(=O)c2cccc([N+](=O)[O-])c2)c1 | 52.3 |
| Cn1c(=O)c2c(nc(CN3CCN(C(=O)C4CC4)CC3)n2Cc2ccccc2Cl)n(C)c1=O | 24.1 |
| COc1ccc(C(=O)C2CCN(CC(=O)N(Cc3nc4c(c(=O)[nH]3)COCC4)CC3CC3)CC2)cc1 | 81.7 |
| O=C(CCBr)N1CCN(C(=O)CCBr)CC1 | > 120 |
| CCc1cccc2cc(C(O)CNC(C)(C)C)oc12 (centres undefined) | 96.4 |
| O=C(NC1CCN(CCCCC2(C(=O)NCC(F)(F)F)c3ccccc3-c3ccccc32)CC1)c1ccccc1-c1ccc(C(F)(F)F)cc1 | 13.5 |
| CC(C)(C)c1ccc(-c2nc3c(N4CCN(Cc5ccc6nccnc6c5)CC4)cccc3[nH]2)cc1 | 20.5 |
| CCc1cc(-c2n[nH]c(C)c2-c2ccc3c(c2)OCCO3)c(O)cc1O | 13.4 |
| Cc1ccccc1-n1c([C@H](C)Nc2nc(N)nc3nc[nH]c23)nc2cccc(C)c2c1=O | 103 |
| O=C(Cn1ccnc1[N+](=O)[O-])NCc1ccccc1 | > 120 |
| CC1=C(C(=O)Nc2cccc(CN)c2)C(c2ccccc2Cl)N=C(Nc2nc3ccccc3o2)N1 (centres undefined) | > 120 |
| Cc1cn([C@@H]2O[C@H](CO)[C@@H](O)[C@H]2F)c(=O)[nH]c1=O | 22.1 |
| CCc1ccc(NC(=O)N2CCN(c3nnc(C)c4c(C)n(-c5ccc(Cl)cc5)nc34)CC2)cc1 | 25.5 |
| CN(C)c1ccc2nc3ccc(=[N+](C)C)cc-3sc2c1 | > 120 |
| Clc1ccc(C2(c3ccc(-c4cn[nH]c4)cc3)CCNCC2)cc1 | > 120 |
| NC(=O)c1ccccc1Nc1ccnc(Nc2cccc(O)c2)n1 | 21.8 |
| CC(C)CC(=O)N[C@H](C(=O)N[C@H](C(=O)N[C@@H](CC(C)C)[C@@H](O)CC(=O)N[C@@H](C)C(=O)N[C@@H](CC(C)C)[C@@H](O)CC(=O)O)C(C)C)C(C)C (Isovaleryl-VV[Sta]A[Sta]-OH) | > 120 |
| COc1ccc(C(=O)c2ccccc2O)c(O)c1 | 8.9 |
| O=C1NC(=Nc2ccccc2F)S/C1=C\c1ccc(C(=O)O)cc1 | 52.4 |
| Cc1cc(C)cc(NC(=O)Cc2ccc(OC(C)(C)C(=O)O)cc2)c1 | > 120 |
| C[C@]12Cc3cn[nH]c3C[C@@H]1CC[C@@H]1[C@@H]2CC[C@@]2(C)[C@H]1CC[C@]2(C)O | 24 |

| Structure (SMILES) | half-life [min] |
| --- | --- |
| CCCN(CCC)CCc1cccc2c1CC(=O)N2 | > 120 |
| CN1CCN(C(=O)Cc2cccn2-c2ccc(F)cc2)CC1 | > 120 |
| C#CCN(C)CCCOc1ccc(Cl)cc1Cl | 3.52 |
| Cn1ncc(Cl)c1-c1cc(C(=O)NC(CN)Cc2ccc(F)c(F)c2)oc1Cl (centres undefined) | > 120 |
| Cc1cc(C(C)Nc2ccccc2C(=O)O)c2nc(N3CCOCC3)cc(=O)n2c1 (centres undefined) | > 120 |
| CN/C(=C\[N+](=O)[O-])NCCSCc1csc(CN(C)C)n1 | > 120 |
| COc1ccc(CC(=O)NCC(c2cccs2)S(=O)(=O)c2ccc(Cl)cc2)cc1 (centres undefined) | 4.19 |
| CCCCCOc1cc2c(cc1-c1cc(/C=C/C(=O)O)ccc1O)C(C)(C)CCC2(C)C | 10.8 |
| O=C(Cc1ccc(-c2ccccc2)cc1)NC1CCC1 | 1.5 |
| COc1cc(=O)n2c(c1C(=O)NCc1ccc3c(c1)OCO3)CCN(C(=O)c1ccc(C)cc1C)CC2 | 34.4 |
| C/C(=N/NC(=O)c1ccncc1)C(=O)O | > 120 |
| Cc1cc(-c2ncc(CC(=O)Nc3ccc(-c4cnccn4)cn3)cc2C)ccn1 | 36.4 |
| O=[N+]([O-])c1cn2c(n1)OC[C@@H](OCc1ccc(OC(F)(F)F)cc1)C2 | > 120 |
| CC(CCc1ccc(O)cc1)NCC(O)c1ccc(O)cc1 (centres undefined) | > 120 |
| COCC(=O)Nc1c(I)c(C(=O)NCC(O)CO)c(I)c(C(=O)N(C)CC(O)CO)c1I (centres undefined) | 84.2 |
| O=C(O)CCCc1ccccc1 | > 120 |
| CC(C)c1nn(-c2c(Cl)cccc2Cl)c2nc(Cc3ccc(OCCO)cc3)[nH]c(=O)c12 | 32.2 |
| COc1ccc(CCNc2nc(SCc3ccccc3Cl)nc3ccccc23)cc1OC | 7.1 |
| O=C1c2ccccc2C(=O)c2c(O)c(O)cc(O)c21 | 59.8 |
| Cc1cccc(N2CCN(C(=O)CCC(=O)NNc3nc4ccccc4c4nc(C)nn34)CC2C)c1 (centres undefined) | 6.71 |
| CCOC(=O)C(c1c(O)c2ccccc2oc1=O)c1c(O)c2ccccc2oc1=O | 10.3 |
| O=C(O)c1ccc(CN2CCC(CN[C@@H]3C[C@H]3c3ccccc3)CC2)cc1 | > 120 |
| O=C(O)c1ccc[n+]([O-])c1 | 106 |
| CCCCNc1c(C(=O)OCC)c(C)nc2c1cnn2CC | 5.85 |
| Cc1cccc(C=NNc2cc(N3CCOCC3)nc(OCCc3ccccn3)n2)c1 | 16 |

| Structure (SMILES) | half-life [min] |
| --- | --- |
| COc1cc(Nc2nc3ccccc3nc2NS(=O)(=O)c2ccc(NC(=O)c3ccc(C)c(OC)c3)cc2)cc(OC)c1 | > 120 |
| CC(C)(C)NC[C@H](O)c1cc(O)cc(O)c1 | > 120 |
| Cc1cccc(N2CCN(C(=O)c3cn(C4CCCCC4)c(=O)c4c3c3ccccc3n4C)CC2)c1C | 0.76 |
| COc1ccc(CNC(=O)C2CCCN(c3nnc(C)c4c(C)n(-c5ccc(C)cc5)nc34)C2)cc1 (centres undefined) | 5.53 |
| CCN(CC)Cc1cccc(/C=C/c2nc3ccc(F)cc3c(=O)n2-c2ccccc2Cl)n1 | 25.8 |
| CN(C)c1nc(NC2CCC(NCCc3ccc(Br)cc3OC(F)(F)F)CC2)nc2ccccc12 (centres undefined) | > 120 |
| CCOP(=S)(OCC)Oc1nc(Cl)c(Cl)cc1Cl | 1.81 |
| Oc1cccc(O)c1O | > 120 |
| CC(C)(O)c1ccc2c(c1)ncn2-c1cccc(-c2ccccc2C#N)c1 | > 120 |
| CCOc1cc(OCC)c(C(=O)CCC(=O)O)cc1OCC | > 120 |
| CC1CC(C)C(=O)C(C(O)CC2CC(=O)NC(=O)C2)C1 (centres undefined) | > 120 |
| CCN1CCN(C(=O)c2cc(-c3ccccc3OC)c3nncn3n2)CC1 | 54.7 |
| CN(C)CCCO[C@H]1C([C@H](O)CO)O[C@@H]2OC(C)(C)O[C@@H]21 (some centres undefined) | 78.9 |
| COc1cc(C(c2c(C)[nH][nH]c2=O)c2c(C)[nH][nH]c2=O)ccc1OC(=O)c1cccc(C)c1 | 2.21 |
| Cc1ccc(S(=O)(=O)NC(=O)NC2CCCCC2)cc1 | > 120 |
| CC(C)NC(=O)COc1cccc(-c2nc(Nc3ccc4[nH]ncc4c3)c3ccccc3n2)c1 | 23.4 |
| CCn1c(-c2nonc2N)nc2c(C#CCO)ncc(OCCCN)c21 | > 120 |
| C[C@@H]1C[C@H]2[C@@H]3C[C@H](F)C4=CC(=O)C(Cl)=C[C@]4(C)[C@@]3(F)[C@@H](O)C[C@]2(C)[C@@]1(O)C(=O)CO | 46.3 |
| Cc1cccc(C)c1OCC(C)N (centres undefined) | 114 |
| CCOc1ncc(S(=O)(=O)N2CCN(CC)CC2)cc1-c1nc2c(CC)n(CCOC)nc2c(=O)[nH]1 | 76.2 |
| Cc1cc(C(C)Nc2ccccc2)c2nc(N3CCOCC3)cc(=O)n2c1 (centres undefined) | 17.2 |
| CCOC(=O)[C@H](CCc1ccccc1)N[C@H]1CCCN2CCC[C@@H](C(=O)O)N2C1=O | 16.7 |
| O=C(NCC1CCOCC1)c1cnc(Nc2ccc(Cl)cc2Cl)nc1C(F)(F)F | 38.1 |
| O=C(Nc1cccc(-c2nc3ccccc3o2)c1)c1ccccc1Cl | 9.1 |
